Active and inactive are the calls of the source. The rule behind the calls is not given here.
Assays:
Homo sapiens [1] = organism: Homo sapiens; assay: Binding affinity to carboxylesterase (unknown origin) by fluorescence analysis
Mus musculus [2] = assay: Antialzheimer activity in APP/PS1 transgenic AD mouse model assessed as improvement in recognition index for novel objects administered intravenously once every 2 days for 10 times and measured on day 28 by Novel object recognition test; format: functional, organism-based; conditions: route iv, time 28.0 day
[3] = Toxicity in APP/PS1 transgenic AD mouse model assessed as liver damage administered intravenously once every 2 days for 10 times and measured on day 30 by H and E staining based analysis; format: tissue-based; conditions: in vivo, iv, 720 h, time 30 day
[4] = Drug uptake in brain of 6 weeks old AD-mouse model assessed as increase in fluorescence at 100 uM, iv preadministered with tacrine for 4 hrs followed by compound administration by fluorescence scanning analysis; format: ADME, organism-based; conditions: in vivo
Homo sapiens [5] = organism: Homo sapiens; assay: Binding affinity to ALP (unknown origin) by fluorescence analysis
[6] = Stability of compound in male ICR mouse brain at 100 uM, iv measured at 5 to 60 mins by fluorescence microplate reader; format: ADME, organism-based; conditions: time 5-60 min
Mus musculus [7] = assay: Antialzheimer activity in APP/PS1 transgenic AD mouse model assessed as increase in ACh level administered intravenously once every 2 days for 10 times and measured on day 30 by ELISA; format: functional, organism-based; conditions: route iv, time 30.0 day
[8] = Stability of compound in male ICR mouse plasma at 100 uM, iv measured after 30 mins by fluorescence microplate reader; format: ADME, organism-based; conditions: 0.5 h
[9] = Toxicity in APP/PS1 transgenic AD mouse model assessed as spleen damage administered intravenously once every 2 days for 10 times and measured on day 30 by H and E staining based analysis; format: tissue-based; conditions: in vivo, iv, 720 h, time 30 day
SH-SY5Y [10] = assay: Neuroprotective activity against amyloid-beta (1 to 42)-induced human SH-SY5Y cells assessed as increase in ACh level in culture medium at 10 to 20 uM incubated for 24 hrs by ELISA; format: functional, cell-based; conditions: dose 10-20 µM
[11] = Drug uptake in brain of 8 months old AD-mouse model assessed as increase in fluorescence at 100 uM, iv by fluorescence scanning analysis; format: ADME, organism-based; conditions: in vivo
Cholinesterase [12] = target: T1, Cholinesterase (Homo sapiens, UniProt P06276); assay: Binding affinity to BChE (unknown origin) in PBS assessed as cyan coloured appearance of compound by UV/vis absorption analysis
T1 sequence (P06276 whole entry): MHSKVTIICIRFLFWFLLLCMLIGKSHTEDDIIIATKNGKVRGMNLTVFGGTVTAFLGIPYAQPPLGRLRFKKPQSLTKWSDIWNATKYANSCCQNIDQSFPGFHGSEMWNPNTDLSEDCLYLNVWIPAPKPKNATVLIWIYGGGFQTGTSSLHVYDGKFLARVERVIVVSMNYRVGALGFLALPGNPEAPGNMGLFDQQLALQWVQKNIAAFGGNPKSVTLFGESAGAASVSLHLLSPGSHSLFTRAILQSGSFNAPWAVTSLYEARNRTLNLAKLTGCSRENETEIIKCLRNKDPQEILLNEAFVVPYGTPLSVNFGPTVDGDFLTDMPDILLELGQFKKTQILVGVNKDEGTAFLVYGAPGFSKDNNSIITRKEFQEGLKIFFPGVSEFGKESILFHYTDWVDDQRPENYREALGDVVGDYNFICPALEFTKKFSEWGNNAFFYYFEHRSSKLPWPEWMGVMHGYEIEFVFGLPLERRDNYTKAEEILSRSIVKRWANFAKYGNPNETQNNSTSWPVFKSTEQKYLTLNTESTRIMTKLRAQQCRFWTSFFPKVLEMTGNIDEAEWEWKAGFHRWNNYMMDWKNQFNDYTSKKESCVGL

Mus musculus [13] = assay: Antialzheimer activity in APP/PS1 transgenic AD mouse model assessed as improvement in learning administered intravenously once every 2 days for 10 times followed by morris water maze training from day 21 to 25 and measured on day 26 by Morris water maze test; format: functional, organism-based; conditions: route iv, time 26.0 day
[14] = target: Cholinesterase (Mus musculus) (UniProt Q03311); assay: Binding affinity to BChE in mouse HT-22 cells assessed as increase in fluorescence at 10 uM incubated for 1 hrs in presence of DCF by laser confocal imaging analysis; format: cell-based
Cholinesterase (Mus musculus), sequence (Q03311 whole entry): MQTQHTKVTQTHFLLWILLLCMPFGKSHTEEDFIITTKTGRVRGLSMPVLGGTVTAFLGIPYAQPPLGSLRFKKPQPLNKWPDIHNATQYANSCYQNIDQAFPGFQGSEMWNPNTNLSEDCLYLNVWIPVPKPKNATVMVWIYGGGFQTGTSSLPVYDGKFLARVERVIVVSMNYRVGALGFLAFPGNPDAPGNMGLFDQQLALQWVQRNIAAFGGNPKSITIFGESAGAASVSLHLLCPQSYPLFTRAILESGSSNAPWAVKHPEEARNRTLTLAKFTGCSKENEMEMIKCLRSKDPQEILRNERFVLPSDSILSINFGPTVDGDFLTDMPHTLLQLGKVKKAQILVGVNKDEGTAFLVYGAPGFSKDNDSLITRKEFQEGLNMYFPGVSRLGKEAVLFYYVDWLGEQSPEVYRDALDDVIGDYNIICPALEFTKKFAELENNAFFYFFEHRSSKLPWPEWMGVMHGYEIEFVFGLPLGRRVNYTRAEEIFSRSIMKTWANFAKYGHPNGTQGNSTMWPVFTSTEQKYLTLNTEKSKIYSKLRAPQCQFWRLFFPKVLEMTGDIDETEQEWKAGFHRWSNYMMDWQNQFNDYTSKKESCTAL

[15] = Stability of compound at pH 12 measured within 3 mins by microplate reader analysis; format: physicochemical; conditions: buffer, pH 12, 0.05 h
[16] = Toxicity in APP/PS1 transgenic AD mouse model assessed as lung damage administered intravenously once every 2 days for 10 times and measured on day 30 by H and E staining based analysis; format: tissue-based; conditions: in vivo, iv, 720 h, time 30 day
SH-SY5Y [17] = assay: Neuroprotective activity against amyloid-beta (1 to 42)-induced human SH-SY5Y cells assessed as decrease in amyloid beta (1 to 42) level in cell lysate at 10 to 20 uM incubated for 24 hrs by ELISA; format: functional, cell-based; conditions: dose 10-20 µM
PC-12 [18] = assay: Binding affinity to BChE in rat PC-12 cells assessed as increase in fluorescence intensity incubated for 1 hrs by fluorescence based confocal laser scanning microscopic analysis; format: cell-based; conditions: dose 1-10 µM
[19] = Drug uptake in brain of 8 months old AD-mouse model assessed as increase in fluorescence at 100 uM, iv preadministered with tacrine for 4 hrs followed by compound administration by fluorescence scanning analysis; format: ADME, organism-based; conditions: in vivo
Cholinesterase [20] = target: T1, Cholinesterase; assay: Binding affinity to BChE (unknown origin) assessed as enzyme mediated compound hydrolysis measured after 1 min by HPLC analysis relative to control; design: scale not given: the % may be the effect or the level left
[21] = Drug uptake in HEK293T cells transfected with BChE siRNA assessed as increase in fluorescence intensity by fluorescence based confocal laser scanning microscopic analysis; format: ADME, cell-based; conditions: human, hek-293t
Mus musculus [22] = assay: Antialzheimer activity in APP/PS1 transgenic AD mouse model assessed as improvement in memory administered intravenously once every 2 days for 10 times followed by morris water maze training from day 21 to 25 and measured on day 26 by Morris water maze test; format: functional, organism-based; conditions: route iv, time 26.0 day
Cholinesterase [23] = target: T1, Cholinesterase; assay: Binding affinity to BChE (unknown origin) in PBS assessed as […] at 680 nm by UV/vis absorption analysis
Cholinesterase [24] = target: T1, Cholinesterase; assay: Inhibition of human BChE using butyrylthiocholineiodide as substrate preincubated for 5 mins followed by substrate addition and measured immediately by Ellmans method
SH-SY5Y [25] = assay: Neuroprotective activity against amyloid-beta (1 to 42)-induced human SH-SY5Y cells assessed as decrease in amyloid beta (1 to 42) level in culture medium at 10 to 20 uM incubated for 24 hrs by ELISA; format: functional, cell-based; conditions: dose 10-20 µM
[26] = Permeability of compound incubated for 18 hrs by PAMPA-BBB based UV plate spectroscopic reader analysis; format: ADME; conditions: read-out: permeability
[27] = Drug uptake in wildtype mouse brain assessed as increase in fluorescence at 100 uM, iv preadministered with tacrine for 4 hrs followed by compound administration by fluorescence scanning analysis; format: ADME, organism-based; conditions: in vivo
Acetylcholinesterase [28] = target: T2, Acetylcholinesterase (Homo sapiens, UniProt P22303); assay: Binding affinity to AChE (unknown origin) by fluorescence analysis
T2 sequence (P22303 whole entry): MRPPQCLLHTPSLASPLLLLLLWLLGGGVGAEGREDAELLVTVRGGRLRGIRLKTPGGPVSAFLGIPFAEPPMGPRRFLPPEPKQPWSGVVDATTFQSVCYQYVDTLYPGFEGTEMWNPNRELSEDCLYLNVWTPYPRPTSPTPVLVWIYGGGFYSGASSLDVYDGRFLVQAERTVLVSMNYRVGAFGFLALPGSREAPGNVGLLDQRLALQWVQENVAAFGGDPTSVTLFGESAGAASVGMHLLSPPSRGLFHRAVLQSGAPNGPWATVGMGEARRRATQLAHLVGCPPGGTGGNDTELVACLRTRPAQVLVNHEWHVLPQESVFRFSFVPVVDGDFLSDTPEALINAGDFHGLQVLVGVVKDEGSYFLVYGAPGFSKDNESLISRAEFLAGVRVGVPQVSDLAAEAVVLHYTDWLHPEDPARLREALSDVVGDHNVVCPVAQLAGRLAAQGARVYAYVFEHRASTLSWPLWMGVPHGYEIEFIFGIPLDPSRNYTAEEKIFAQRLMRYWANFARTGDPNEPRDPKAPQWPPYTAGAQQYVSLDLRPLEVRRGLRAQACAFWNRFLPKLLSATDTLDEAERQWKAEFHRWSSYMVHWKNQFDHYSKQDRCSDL

[29] = Drug accumulation in brain of APP/PS1 transgenic AD-mouse model at 100 uM, iv measured after 24 hrs […] by fluorescence imaging analysis; format: ADME, organism-based; conditions: in vivo
Acetylcholinesterase [30] = target: T2, Acetylcholinesterase; assay: Inhibition of human AChE using acetylthiocholine iodide as substrate at 10 uM preincubated for 5 mins followed by substrate addition and measured immediately by Ellmans method relative to control
[31] = Drug uptake in wildtype mouse brain assessed as increase in fluorescence at 100 uM, iv by fluorescence scanning analysis; format: ADME, organism-based; conditions: in vivo
Cholinesterase [32] = target: T1, Cholinesterase; assay: Binding affinity to BChE (unknown origin) in PBS assessed as Michaelis-menten constant by fluorometric method
Mus musculus [33] = assay: Antialzheimer activity in APP/PS1 transgenic AD mouse model assessed as increase in alteration performance administered intravenously once every 2 days for 10 times and measured on day 26 by Y maze test; format: functional, organism-based; conditions: route iv, time 26.0 day
Homo sapiens [34] = organism: Homo sapiens; assay: Binding affinity to lysozyme (unknown origin) by fluorescence analysis
Cholinesterase [35] = target: T1, Cholinesterase; assay: Binding affinity to BChE (unknown origin) assessed as enzyme mediated compound hydrolysis measured after 5 min by HPLC analysis relative to control; design: scale not given: the % may be the effect or the level left
Cholinesterase [36] = target: T1, Cholinesterase; assay: Binding affinity to BChE in human LN-229 cells at 10 uM incubated for 1 hrs by fluorescence based confocal laser scanning microscopic analysis; format: cell-based
Mus musculus [37] = assay: Antialzheimer activity in APP/PS1 transgenic AD mouse model assessed as decrease in amyloid beta (1 to 42) level administered intravenously once every 2 days for 10 times and measured on day 30 by ELISA; format: functional, organism-based; conditions: route iv, time 30.0 day
PC-12 [38] = assay: Binding affinity to BChE in rat PC-12 cells assessed as increase in fluorescence intensity at 10 uM incubated for 24 hrs by fluorescence based confocal laser scanning microscopic analysis; format: cell-based

In the case of `CCN(CC)Cc1ccccc1CNC(=O)c1cccc(NC(=O)c2cccc(C(=O)NCCn3cc(CCC[N+]4=C(/C=C/C5=C6Oc7cc(OC(=O)C8CC8)ccc7C=C6CCC5)C(C)(C)c5ccccc54)nn3)c2)c1.[I-]`, the Activity (Homo sapiens [1]) is reported as “inactive”, the Activity (Mus musculus [2]) is reported as “Active” and the Activity [3] is reported as “Non-Toxic”. For the same compound, the Drug uptake [4] was “Not Active”, the Activity (Homo sapiens [5]) was “inactive” and the Stability [6] was “Stable”. The Activity (Mus musculus [7]) was “Active”, the Stability [8] was “Stable” and the Activity [9] was “Non-Toxic”. The Activity (SH-SY5Y [10]) was “Active”, the Drug uptake [11] was “Active” and the Activity (Cholinesterase [12]) was “Active”. For the same compound, the Activity (Mus musculus [13]) was “Active”, the Activity [14] was “inactive” and the Stability [15] was “Unstable”. For the same compound, the Activity [16] was “Non-Toxic”, the Activity (SH-SY5Y [17]) was “Active” and the Activity (PC-12 [18]) was “Dose-Dependent Effect”. For the same compound, the Drug uptake [19] was “Not Active”, the Activity (Cholinesterase [20]) was 50% and the Drug uptake [21] was “Not Active”. For the same compound, the Activity (Mus musculus [22]) was “Active”, the Activity (Cholinesterase [23]) was “Active” and the IC50 (Cholinesterase [24]) was 29.7 nM. For the same compound, the Activity (SH-SY5Y [25]) was “Active”, the Papp at 18 h [26] was 15.5 ×10⁻⁶ cm/s and the Drug uptake [27] was “Not Active”. For the same compound, the Activity (Acetylcholinesterase [28]) was “inactive”, the Drug uptake [29] was “Not Active” and the inhibition (Acetylcholinesterase [30]) was 12.3%. For the same compound, the Drug uptake [31] was “Active”, the Activity (Cholinesterase [32]) was 12.9 µM and the Activity (Mus musculus [33]) was “Active”. The Activity (Homo sapiens [34]) was “inactive”, the Activity (Cholinesterase [35]) was greater than 90% and the Activity (Cholinesterase [36]) was “Active”. The Activity (Mus musculus [37]) was “Active” and the Activity (PC-12 [38]) was “Active”.

From ChEMBL document CHEMBL5506010, “Butyrylcholinesterase-Activated Near-Infrared Fluorogenic Probe for In Vivo Theranostics of Alzheimer's Disease” (J Med Chem, 2024)
